Measured values: patent US20220160651A1, “RAPIDLY IMPROVING ENDOTHELIAL FUNCTION, REDUCING ARTERIAL STIFFNESS AND REVERSING CALCIFICATION OF BLOOD VESSELS BY ADMINISTERING VITAMIN K” (KAYDENCE PHARMA AS, priority 2019, published 2022)

Columns and labels:
matrix gla protein (MGP) = assay: Clinical study: blood analysis of matrix gla protein carboxylation; assay type: in vivo, human; conditions: 360 ug/day, after 8 weeks of treatment, kidney transplant patients
Method: Participants were enrolled in a clinical trial in which the effects of vitamin K2 were determined for patients who had recently undergone a kidney transplant. At the beginning of the study, patients were subjected to a non-invasive pulse wave velocity measurement to measure arterial stiffness/flexibility, as well as blood analysis. The study participants were then instructed to receive a specific daily dose of MenaQ7 vitamin K2 menaquinone-7 (360 ug/day) for a total of 8 weeks. At the end of 8 weeks, patients were again examined with a follow-up examination, a non-invasive pulse wave velocity measurement and blood analysis and drug treatment was discontinued.
As part of the blood analysis, carboxylated matrix gla protein (MGP) was measured as a direct measure of vitamin K2 activity. The carboxylated MGP inhibits calcification of blood vessels and Vitamin K2 stimulates carboxylation of MGP.

ApoE/LDLR−/− mice [1] = assay: Nitrite and nitrate concentration in plasma, HPLC-based ENO-20 (Example 2); assay type: in vivo; conditions: two months; for increase in NO2− concentration in plasma: vs untreated
Method: Nitrite (NO2^−) and nitrate (NO3^−) concentration in plasma—HPLC-based ENO-20
Blood samples were collected from heart into test tubes containing additional anticoagulant and centrifuged at 1000 g for 10 min at 4° C. The samples were used for HPLC measurement of nitrate (NO3^−) and nitrite (NO2^−) concentrations in plasma by an ENO-20 NOx Analyzer.

ApoE/LDLR−/− mice [2] = assay: Histological assessment of plaque size and composition and vessel wall area in BCA (Example 2); assay type: in vivo; conditions: two months
Text: Plaque size and composition as well as vessel wall area (VWA) in BCA—Histological assessment, cross-section method, BCA cross-sections: total 13000 slides, Photographed: 1214 slides
For the determination of atherosclerotic plaque area and composition BCA was dissected, fixed in 4% buffered formalin and embedded in paraffin. 5 μm-thick serial sections of BCA were collected from proximal, middle and distal parts of artery. Originally developed staining with Unna's orcein combined with Martius, Scarlet and Blue trichrome (OMSB), was applied on every tenth section (50 μm interval between each section) for visualization of collagen, elastin, fibrin, red blood cells and vascular smooth muscle cells within atherosclerotic plaque. The areas of particular components of atherosclerotic plaque as well as artery lumen and wall were determined after Columbus-based software processing (FIG. 1B) using a previously developed algorithm [Gajda M, Jasztal A, Banasik T, Jasek-Gajda E, Chlopicki S. Combined orcein and martius scarlet blue (OMSB) staining for qualitative and quantitative analyses of atherosclerotic plaques in brachiocephalic arteries in apoE/LDLR−/− mice. Histochem Cell Biol 2017. doi:10.1007/s00418-017-1538-81.

ApoE/LDLR−/− mice [3] = assay: Nitrite and nitrate concentration in plasma, older mice (Example 3); assay type: in vivo; conditions: 0.03 and 10 mg/kg b.w./day, eight weeks
[4] = tested on: thrombin generation in platelet-poor mice plasma; assay: Thrombin generation by calibrated automated thrombogram (CAT); assay type: in vivo; conditions: either dose (0.03 or 10 mg/kg b.w./day), eight weeks
Method: Thrombin generation was measured in platelet-poor mice plasma using calibrated automated thrombography (CAT) technique as described in Hemker H C, Giesen P, Al Dieri R, Regnault V, de Smedt E, Wagenvoord R, et al. Calibrated automated thrombin generation measurement in clotting plasma. Pathophysiol Haemost Thromb 2003; 33:4-15. doi:71636. Thrombin generation was activated by mixing 21 μl of diluted plasma (1:1 with BSAS buffer) with 7 μIL of fluorogenic substrate (Z-Gly-Gly-Arg-AMC, 16.6 mM) and 14 μl of trigger solution containing phospholipids, tissue factor and CaCl2 (4 μM, […] and 16.6 mM, respectively). In the calibration wells, the 14 μl of reagents were replaced with calibrator (102 nM). Immediately after the activation, 5 μl of the mixture was pipetted on paper disks in a flat bottom 96-well polystyrene plate and covered with 40 μl of mineral oil. Fluorescent signals were measured using the Fluoroskan Ascent software (Thermo Labsystems, Helsinki, Finland) and transformed into thrombin concentration as described in Hemker H C, Kremers R. Data management in Thrombin Generation. Thromb Res 2013; 131:3-11. doi:10.1016/j.thromres.2012.10.011. The parameters analyzed included endogenous thrombin potential (ETP), peak thrombin concentration (peak), and lag time.

ApoE/LDLR−/− mice [5] = assay: Histological assessment of area and composition of atherosclerotic plaque in BCA, older mice (Example 3); assay type: in vivo; conditions: eight weeks
Text: For the determination of atherosclerotic plaque area and composition isolated brachiocephalic artery (BCA) was dissected, fixed in 4% buffered formalin, and embedded in paraffin. 5 μm-thick serial sections of BCA were collected from the proximal to distal part of the artery. Staining with Unna's orcein combined with Martius, Scarlet and Blue trichrome (OMSB) was applied on every tenth section (50 μm interval between each section) for quantitative analysis of atherosclerotic plaques. The areas of particular components of atherosclerotic plaque as well as artery lumen and wall were determined after Columbus-based software processing (FIG. 9) using specially-designed algorithm as described in Gajda M, Jasztal A, Banasik T, Jasek-Gajda E, Chlopicki S. Combined orcein and martius scarlet blue (OMSB) staining for qualitative and quantitative analyses of atherosclerotic plaques in brachiocephalic arteries in apoE/LDLR−/− mice. Histochem Cell Biot 2017. doi:10.1007/s00418-017-1538-8. The parameters analyzed include vessel wall area (VWA), internal vessel area (IVA=plaque area+lumen area), plaque area (expressed as percent of internal wall area: plaque/IWA), and lumen area (expressed as percent of internal wall area: lumen/IWA).

Structure (SMILES): CC(C)=CCC/C(C)=C/CC/C(C)=C/CC/C(C)=C/CC/C(C)=C/CC/C(C)=C/CC/C(C)=C/CC1=C(C)C(=O)c2ccccc2C1=O [MK-7, menaquinone-7]
- mean reduction of levels of uncarboxylated MGP (matrix gla protein (MGP)): 55%
- concentration of NO3− in plasma (ApoE/LDLR−/− mice [1]; 0.03 and 10 mg/kg b.w./day): did not change significantly
- increase in NO2− concentration in plasma (ApoE/LDLR−/− mice [1]; high dose 10 mg/kg b.w./day): ~42%
- increase in NO2− concentration in plasma (ApoE/LDLR−/− mice [1]; low dose 0.03 mg/kg b.w./day): about 58%
- decrease in vessel wall area (VWA) of BCA (ApoE/LDLR−/− mice [2]; low and high dose (0.03 and 10 mg/kg b.w./day)): about 5%
- decrease of lipid core expressed as percent of plaque (ApoE/LDLR−/− mice [2]; low and high dose): about 17%
- effect on plaque size (ApoE/LDLR−/− mice [2]; low or high dose): did not result in a beneficial effect on plaque size
- plaque and lumen area expressed as percent of IWA (ApoE/LDLR−/− mice [2]; low or high dose): did not change
- internal wall area (IWA) (ApoE/LDLR−/− mice [2]; lower dose 0.03 mg/kg b.w./day): decreased only in the middle part of the vessel
- content of collagen in plaque (ApoE/LDLR−/− mice [2]; treated vs untreated groups): lack of differences between treated and untreated groups
- concentration of NO3− in plasma (ApoE/LDLR−/− mice [3]): did not change significantly
- thrombin generation [4]: did not affect
- plaque size compared with non-treated mice (ApoE/LDLR−/− mice [5]; low (0.03 mg/kg b.w./day) or high dose (10 mg/kg b.w./day)): not different
- decrease in vessel wall area (VWA) of BCA (ApoE/LDLR−/− mice [5]; low and high dose, 24-week-old mice): about 5%
- plaque and lumen area expressed as percent of IWA (ApoE/LDLR−/− mice [5]; low or high dose): did not change
- internal wall area (IWA) (ApoE/LDLR−/− mice [5]; lower dose): decreased only in the middle part of the vessel
